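How tested: cells in 96-well plates exposed to compound for 48 hours at five concentrations. TGI denotes the concentration required for complete inhibition of growth.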 Where a SMILES comes first, the peptide text is derived from it.
What was measured:
Assay in all cases: NCI tumour cell line growth inhibition, 48 h
A498 renal = tested on: A498 renal
BT-549 breast = tested on: BT-549 breast
DU-145 prostate = tested on: DU-145 prostate
EKVX NSCLC = tested on: EKVX NSCLC
HCT-116 colon = tested on: HCT-116 colon
HL-60(TB) leukemia = tested on: HL-60(TB) leukemia
HS 578T breast = tested on: HS 578T breast
NCI-H226 lung = tested on: NCI-H226 lung
OVCAR-3 ovarian = tested on: OVCAR-3 ovarian
SK-MEL-28 melanoma = tested on: SK-MEL-28 melanoma
U251 CNS = tested on: U251 CNS

Measured: TGI

Cc1cn(C2CCN(CC3COC(C)(C)O3)O2)c(=O)[nH]c1=O (stereo not given)
> 100 µM: A498 renal | BT-549 breast | DU-145 prostate | EKVX NSCLC | HCT-116 colon | HL-60(TB) leukemia | HS 578T breast | NCI-H226 lung | OVCAR-3 ovarian | SK-MEL-28 melanoma | U251 CNS

CC(=O)Nc1cc2nc3n(c2cc1C)CCC3OC(C)=O (stereo not given)
> 100 µM: A498 renal | BT-549 breast | DU-145 prostate | EKVX NSCLC | HCT-116 colon | HL-60(TB) leukemia | HS 578T breast | NCI-H226 lung | OVCAR-3 ovarian | SK-MEL-28 melanoma | U251 CNS

O=C(Nc1cccc(C(=O)NCCCO)c1)/C(=C/c1ccccc1)NC(=O)c1ccccc1
> 100 µM: A498 renal | BT-549 breast | DU-145 prostate | EKVX NSCLC | HCT-116 colon | HL-60(TB) leukemia | HS 578T breast | NCI-H226 lung | OVCAR-3 ovarian | SK-MEL-28 melanoma | U251 CNS

CCCC(=O)OC[n+]1ccc(-c2c(COC(=O)NC(C)C)c(COC(=O)NC(C)C)c3n2CCC3)cc1
> 100 µM: A498 renal | BT-549 breast | DU-145 prostate | EKVX NSCLC | HCT-116 colon | HL-60(TB) leukemia | HS 578T breast | NCI-H226 lung | OVCAR-3 ovarian | SK-MEL-28 melanoma | U251 CNS

O=C(CN=C(CN(c1ccccc1)c1ccccc1)Oc1ccc(Cl)cc1Cl)n1ccnc1
> 100 µM: A498 renal | BT-549 breast | DU-145 prostate | EKVX NSCLC | HCT-116 colon | HS 578T breast | NCI-H226 lung | OVCAR-3 ovarian | SK-MEL-28 melanoma | U251 CNS

CCC(C)C(NC(=O)C(CC(C)C)NC(=O)CNC(=O)C(NC(=O)C1CCCN1C(=O)C(CC(C)C)NC(=O)C(N)Cc1ccccc1)C(C)CC)C(=O)NC(CC(C)C)C(N)=O (stereo not given) (H-FLPIGLIL-NH2; configuration not given here)
> 75 µM: A498 renal | BT-549 breast | DU-145 prostate | EKVX NSCLC | HCT-116 colon | HL-60(TB) leukemia | HS 578T breast | NCI-H226 lung | OVCAR-3 ovarian | SK-MEL-28 melanoma | U251 CNS

CC(C)Cn1cnc2c(Cl)nc3ccccc3c21
> 100 µM: A498 renal | BT-549 breast | DU-145 prostate | EKVX NSCLC | HCT-116 colon | HS 578T breast | NCI-H226 lung | OVCAR-3 ovarian | SK-MEL-28 melanoma | U251 CNS
62.9 µM: HL-60(TB) leukemia

Cn1cc(-c2nnc(-c3ccc(Cl)cc3)[nH]c2=O)c2ccccc21
> 37.5 µM: U251 CNS
> 100 µM: BT-549 breast | HS 578T breast | SK-MEL-28 melanoma
> 51.8 µM: DU-145 prostate
> 64.9 µM: EKVX NSCLC
> 66.3 µM: HCT-116 colon
> 61 µM: A498 renal
14.9 µM: OVCAR-3 ovarian
> 24 µM: HL-60(TB) leukemia
35.4 µM: NCI-H226 lung

CCCCCCCCCCOCCOCCOCCOCCCCC(O)CCCCCCCC1=C[C@H](C)OC1=O (stereo not given in full)
31.1 µM: HS 578T breast
15.5 µM: HL-60(TB) leukemia
16.1 µM: BT-549 breast
23.5 µM: U251 CNS
33.8 µM: OVCAR-3 ovarian
37.7 µM: HCT-116 colon
26.4 µM: EKVX NSCLC
26.5 µM: A498 renal
25.3 µM: SK-MEL-28 melanoma
23.4 µM: NCI-H226 lung
41.3 µM: DU-145 prostate

CC(C(=O)n1ccnc1)N1c2ccccc2Sc2ccccc21 (stereo not given)
> 100 µM: A498 renal | BT-549 breast | DU-145 prostate | EKVX NSCLC | HCT-116 colon | HL-60(TB) leukemia | HS 578T breast | NCI-H226 lung | OVCAR-3 ovarian | SK-MEL-28 melanoma | U251 CNS

O=[N+]([O-])/C(Cl)=C/C(=C1/Nc2ccccc2O1)[N+](=O)[O-]
57.5 µM: OVCAR-3 ovarian
40.5 µM: EKVX NSCLC
84.1 µM: HS 578T breast
37.7 µM: HL-60(TB) leukemia
38.3 µM: A498 renal
41.6 µM: DU-145 prostate
35.9 µM: SK-MEL-28 melanoma
79.3 µM: NCI-H226 lung
28.6 µM: HCT-116 colon
52 µM: BT-549 breast
28.7 µM: U251 CNS

O=S(=O)(c1cc(Cl)ccc1Cl)N1CCN(c2cccc(Cl)c2)CC1
> 100 µM: A498 renal | BT-549 breast | DU-145 prostate | EKVX NSCLC | HCT-116 colon | HL-60(TB) leukemia | HS 578T breast | NCI-H226 lung | OVCAR-3 ovarian | SK-MEL-28 melanoma | U251 CNS

C(#CC1(Nc2ccccc2)CCN(Cc2ccccc2)CC1)C1(Nc2ccccc2)CCN(Cc2ccccc2)CC1
43.6 µM: U251 CNS
> 100 µM: BT-549 breast
> 97.1 µM: OVCAR-3 ovarian
54.2 µM: HCT-116 colon
> 46.4 µM: A498 renal | EKVX NSCLC
11.7 µM: HL-60(TB) leukemia
> 56.2 µM: DU-145 prostate | NCI-H226 lung
37.2 µM: HS 578T breast
26.7 µM: SK-MEL-28 melanoma

Cc1cc2c(cc1Cl)SC(NNC1=NCCN1)=NS2(=O)=O
> 10 µM: A498 renal | BT-549 breast | DU-145 prostate | EKVX NSCLC | HCT-116 colon | HL-60(TB) leukemia | HS 578T breast | NCI-H226 lung | OVCAR-3 ovarian | SK-MEL-28 melanoma | U251 CNS

COC(=O)/N=[N+](\[O-])C(c1ccccc1)c1ccccc1
> 100 µM: A498 renal | BT-549 breast | DU-145 prostate | EKVX NSCLC | HCT-116 colon | HL-60(TB) leukemia | HS 578T breast | NCI-H226 lung | OVCAR-3 ovarian | SK-MEL-28 melanoma | U251 CNS

O=CN1CCC23CC(O)CCC2C1Cc1cc(Oc2nnnn2-c2ccccc2)cc(O)c13 (stereo not given)
> 100 µM: A498 renal | BT-549 breast | DU-145 prostate | EKVX NSCLC | HCT-116 colon | HL-60(TB) leukemia | HS 578T breast | NCI-H226 lung | OVCAR-3 ovarian | SK-MEL-28 melanoma | U251 CNS

— PubChem BioAssay (NCI)
